Measured values reported in article PMC8161391, “Synthesis of Novel Fluorinated Xanthine Derivatives with High Adenosine A2B Receptor Binding Affinity” (Pharmaceuticals, 2021).
Values joined by “and” are separate entries in the source; they are usually repeats but may differ in a detail not shown here. Equal entries are not always repeated. Where two headings read alike, the source gives them in different places.

Columns and labels:
[1] = target: human A2B; parameters: method as in PMID 16759111; details: determined versus [3H]ZM214385; read-out: Ki (human A2B) ± SEM; cited from earlier work
[2] = target: adenosine A2B receptor; details: cited from earlier work
[3] = cited from earlier work
[4] = parameters: method as in PMID 32366046; details: cited from earlier work
[5] = target: T1, human adenosine A2B receptor (Homo sapiens, UniProt P29275); test: Competition binding assay, A2B receptor, radioligand [3H]PSB-603; details: vs [3H]PSB-603, mean ± SEM of three experiments
T1 construct: host or cells: CHO or HEK cells (membrane preparations)
T1 sequence (P29275 1-332): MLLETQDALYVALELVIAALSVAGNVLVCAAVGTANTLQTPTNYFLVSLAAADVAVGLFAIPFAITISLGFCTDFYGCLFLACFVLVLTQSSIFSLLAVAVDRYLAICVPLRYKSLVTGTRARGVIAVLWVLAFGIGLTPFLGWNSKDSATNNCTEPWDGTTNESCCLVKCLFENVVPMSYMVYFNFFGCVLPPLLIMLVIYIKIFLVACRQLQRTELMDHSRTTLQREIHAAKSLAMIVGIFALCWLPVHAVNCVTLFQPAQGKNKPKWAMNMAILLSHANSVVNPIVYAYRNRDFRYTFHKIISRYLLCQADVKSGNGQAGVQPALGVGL
Protocol: (§1) For the two novel fluorinated xanthine derivatives, the binding affinity towards the adenosine receptor subtypes A2B, A2A, A1, and A3 was determined in competition binding assays by incubation of the appropriate standard radioligand with membrane preparations of Chinese hamster ovary (CHO) and human embryonic kidney (HEK) cells, respectively, expressing the corresponding human receptor subtype (Table 2).
(§2) Membrane preparations of recombinant CHO or HEK cells expressing the respective human adenosine receptor subtype were obtained according to Borrman et al. or purchased from Perkin Elmer (Waltham, MA, USA). Radioligand binding assays for human A1, A2A, A2B, and A3 receptors were performed according to Alnouri et al.. The following radioligands were employed: [^3H]2-chloro-N^6-cyclopentyladenosine ([^3H]CCPA, 1 nM) for the A1 receptor, [^3H]3-(3-hydroxypropyl)-7-methyl-8-(m-methoxystyryl)-1-propargylxanthine ([^3H]MSX-2, 1 nM) for the A2A receptor, [^3H]8-(4-[4-(4-chlorophenyl)piperazine-1-sulfonyl]phenyl)-1-propyl-2,3,6,7-tetrahydro-1H-purine-2,6-dione ([^3H]PSB-603, 0.3 nM) for the A2B receptor, and [^3H](R)-8-ethyl-4-methyl-2-(phenyl)1,4,7,8-tetrahydro-5H-imidazo[2,1-i]purin-5-one ([^3H]PSB-11, 1 nM) for the A3 receptor. Three separate experiments were performed for determination of Ki values. All data were analyzed with GraphPad Prism, version 4.1 (GraphPad Inc., La Jolla, CA).

[6] = target: T2, human adenosine A2A receptor (Homo sapiens, UniProt P29274); test: Competition binding assay, A2A receptor, radioligand [3H]MSX-2; details: for Ki: human receptor, vs [3H]MSX-2, mean ± SEM of three experiments; for Selectivity Ratio Ki(Ax)/Ki(A2B) A2A/A2B: human receptors
T2 construct: host or cells: CHO or HEK cells (membrane preparations)
T2 sequence (P29274 whole entry): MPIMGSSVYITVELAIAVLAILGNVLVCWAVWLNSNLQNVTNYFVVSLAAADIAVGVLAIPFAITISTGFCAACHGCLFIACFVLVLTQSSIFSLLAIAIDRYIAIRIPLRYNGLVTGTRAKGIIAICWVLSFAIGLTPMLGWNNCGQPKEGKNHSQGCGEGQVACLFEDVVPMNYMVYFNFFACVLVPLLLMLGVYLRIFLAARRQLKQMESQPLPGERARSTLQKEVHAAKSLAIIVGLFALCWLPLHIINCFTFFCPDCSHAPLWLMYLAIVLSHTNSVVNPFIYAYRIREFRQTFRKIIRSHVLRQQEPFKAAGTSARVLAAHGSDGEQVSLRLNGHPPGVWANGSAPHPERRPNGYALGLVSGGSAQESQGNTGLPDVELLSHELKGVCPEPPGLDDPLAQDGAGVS
Protocol: as §1, §2

[7] = target: T3, human adenosine A1 receptor (Homo sapiens, UniProt P30542); test: Competition binding assay, A1 receptor, radioligand [3H]CCPA; details: for Ki: vs [3H]CCPA, mean ± SEM of three experiments; for Selectivity Ratio Ki(Ax)/Ki(A2B) A1/A2B: human receptors
T3 construct: host or cells: CHO or HEK cells (membrane preparations)
T3 sequence (P30542 1-326): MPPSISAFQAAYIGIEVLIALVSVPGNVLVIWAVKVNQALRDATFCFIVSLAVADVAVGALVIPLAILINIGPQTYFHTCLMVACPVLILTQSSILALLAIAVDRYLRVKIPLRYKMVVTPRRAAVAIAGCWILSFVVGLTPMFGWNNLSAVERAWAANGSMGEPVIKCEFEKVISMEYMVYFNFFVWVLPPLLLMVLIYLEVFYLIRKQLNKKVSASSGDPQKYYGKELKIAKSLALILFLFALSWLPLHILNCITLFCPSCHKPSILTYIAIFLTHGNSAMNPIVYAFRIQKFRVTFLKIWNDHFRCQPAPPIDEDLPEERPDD
Protocol: as §1, §2

[8] = target: T4, human adenosine A3 receptor (Homo sapiens, UniProt P0DMS8); test: Competition binding assay, A3 receptor, radioligand [3H]PSB-11; details: for inhibition at 1 µM / Ki: human receptor; for inhibition at 1 µM: at a concentration of 1 µM; for Ki: vs [3H]PSB-11, mean ± SEM of three experiments; for Selectivity Ratio Ki(Ax)/Ki(A2B) A3/A2B: human receptors
T4 construct: host or cells: CHO or HEK cells (membrane preparations)
T4 sequence (P0DMS8 1-318): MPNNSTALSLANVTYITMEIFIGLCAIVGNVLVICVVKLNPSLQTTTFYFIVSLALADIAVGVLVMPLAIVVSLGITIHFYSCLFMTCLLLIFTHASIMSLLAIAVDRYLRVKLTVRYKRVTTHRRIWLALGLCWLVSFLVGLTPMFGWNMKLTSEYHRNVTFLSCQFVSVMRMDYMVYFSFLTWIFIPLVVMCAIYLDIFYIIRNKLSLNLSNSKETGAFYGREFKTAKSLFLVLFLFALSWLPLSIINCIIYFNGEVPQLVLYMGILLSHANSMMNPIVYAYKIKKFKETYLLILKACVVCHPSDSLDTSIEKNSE
Protocol: as §1, §2

[9] = target: adenosine A2A receptor; parameters: method as in PMID 19569717, PMID 30835463, PMID 16821798; details: rat brain cortical membranes; cited from earlier work
[10] = test system: adenosine A2A receptor; test: Receptor binding with adenosine-receptor-expressing rat brain cortical membranes, A2A; details: rat A2A versus human A2B, from published Ki values
[11] = test system: adenosine A1 receptor; test: Receptor binding with adenosine-receptor-expressing rat brain cortical membranes, A1; details: rat A1 versus human A2B, from published Ki values
[12] = target: T4, human adenosine A3 receptor; parameters: method as in PMID 19569717, PMID 30835463, PMID 16821798; details: cited from earlier work; for % Inhibition of Radioligand Binding A3: at a concentration of 1 µM (as headed)
[13] = target: adenosine A1 receptor; parameters: method as in PMID 19569717, PMID 30835463, PMID 16821798; details: rat brain cortical membranes; cited from earlier work
[14] = target: human A2B; details: determined versus [3H]ZM214385 or [125I]IABOPX; read-out: Ki (human A2B) ± SEM; cited from earlier work
[15] = target: T2, human adenosine A2A receptor; parameters: method as in PMID 19569717, PMID 30835463, PMID 16821798; details: cited from earlier work
[16] = target: T3, human adenosine A1 receptor; parameters: method as in PMID 19569717, PMID 30835463, PMID 16821798; details: cited from earlier work
[17] = Organ distribution of [3H]PSB-603 in mice; assay type: in vivo, CD-1 mice; details: 3 min p.i.
Protocol: To estimate the ability of [^3H]PSB-603 to penetrate the BBB in vivo, an initial biodistribution study in healthy CD1 mice was performed.
All animal studies followed the international guidelines on animal care, and the study protocols were approved by the Landesdirektion Leipzig, the local authority for animal care (Reg.-Nr.: TVV 08/13; Reference number: 24-9168.11/18/8; approval date: 12 June 2013). Animal experiments were performed with female CD-1 mice, 10–12 weeks old, obtained from the Experimental Centre of the Faculty of Medicine (MEZ) at the Leipzig University, Leipzig, Germany.
[^3H]PSB-603 (specific activity 2.92 TBq/mmol, Pharmaron formerly Quotient Bioresearch (Radiochemicals) Ltd, Cardiff, UK; the precursor was synthesized at the University of Bonn, Germany) was dissolved in 100 µL of sterile isotonic saline and administered as a bolus injection via the tail vein of the restrained animal. At 3 min (n = 3; dose: […]), retro-orbital blood samples were obtained from the anesthetized animals. Immediately afterwards, organs of interest were isolated and blood plasma was obtained by centrifugation of the whole blood sample (15,000 rpm, room temperature, 1 min). All samples were weighed and dissolved in SOLVABLE (PerkinElmer Life and Analytical Sciences, Rodgau, Germany) for 5 h at 50 °C, overnight at 30 °C, and a further 5 h at 50 °C. By adding H2O2, decolorization of the samples was achieved. The samples were left to cool down to room temperature before the addition of 15 mL of Ultima Gold cocktail (PerkinElmer Life and Analytical Sciences, Rodgau, Germany). The samples were shaken overnight, and the radioactivity was measured in a Beckman Liquid Scintillation Counter LS 6500 (Beckman Coulter, Fullerton, CA, USA). For each sample, the percentage of the injected dose was calculated and normalized according to the tissue weight (% ID/g tissue), followed by normalization according to the injected dose and the weight of the animal [(% ID/g tissue)/(100%/g animal)] to calculate the standardized uptake value (SUV) for each tissue.

[18] = at a concentration of 1 µM (as headed)

Cn1c(=O)c2[nH]c(-c3cnn(Cc4cccc(C(F)(F)F)c4)c3)nc2n(C)c1=O [CVT-6975]
Ki [1]: 0.001 µM

[11CH3]n1nc(-c2ccccc2)c(=O)n2c3ccccc3nc12 [Compound 1]
IC50 [2]: 0.21 ± 0.0123 µM

O=C(Nc1cnc(-c2ccnc([18F])c2)c(-c2ccccc2F)n1)C1CC1 [Compound 2]
metabolic degradation in vivo (in words) ([3]; metabolism studies in mice): rapid metabolic degradation | affinity towards the adenosine A2B receptor (in words) [2]: good affinity

O=c1[nH]c(=O)c2cc(-c3ccnc([18F])c3)c(-c3ccco3)nc2[nH]1 [Compound 3]
in vivo stability (in words) ([3]; compared to 2): considerably improved in vivo stability | affinity towards the A2B receptor (in words) [2]: good affinity | brain uptake (in words) [4]: rather low

CCCn1c(=O)[nH]c2nc(-c3ccc(S(=O)(=O)Nc4ccnc(F)c4)cc3)[nH]c2c1=O [Compound 5, 4-(2,6-Dioxo-1-propyl-2,3,6,7-tetrahydro-1H-purin-8-yl)-N-(2-fluoropyridin-4-yl)benzenesulfonamide]
Ki [5]: 0.00997 ± 0.00086 µM | Ki [6]: 0.375 ± 0.053 µM | Selectivity Ratio Ki(Ax)/Ki(A2B) A2A/A2B [6]: 38 | Ki ([7]; human receptor): 0.255 ± 0.032 µM | Selectivity Ratio Ki(Ax)/Ki(A2B) A1/A2B [7]: 25 | inhibition at 1 µM [8]: 45% | Ki [8]: ~1 µM

CCCn1c(=O)[nH]c2nc(-c3ccc(S(=O)(=O)N4CCC(F)CC4)cc3)[nH]c2c1=O [Compound 6, 8-(4-((4-Fluoropiperidin-1-yl)sulfonyl)phenyl)-1-propyl-3,7-dihydro-1H-purine-2,6-dione]
Ki [5]: 0.0123 ± 0.0036 µM | Ki [6]: 0.158 ± 0.028 µM | Selectivity Ratio Ki(Ax)/Ki(A2B) A2A/A2B [6]: 13 | inhibition at 1 µM ([7]; human receptor, at a concentration of 1 µM): 44% | Ki ([7]; human receptor): ~1 µM | Selectivity Ratio Ki(Ax)/Ki(A2B) A1/A2B [7]: 81 | inhibition at 1 µM [8]: 38% | Ki [8]: > 1 µM | Selectivity Ratio Ki(Ax)/Ki(A2B) A3/A2B [8]: >81

CCCn1c(=O)[nH]c2nc(-c3ccc(S(=O)(=O)Nc4ccccc4)cc3)[nH]c2c1=O [Compound 7]
Ki [9]: 0.023 ± 0.013 µM | Selectivity Ratio Ki(Ax)/Ki(A2B) A2A/A2B [10]: 0.7 | Selectivity Ratio Ki(Ax)/Ki(A2B) A1/A2B [11]: 0.06 | % Inhibition of Radioligand Binding A3 [12]: 48% | Ki [12]: > 1 µM | Selectivity Ratio Ki(Ax)/Ki(A2B) A3/A2B [8]: >32 | Ki [13]: 0.0018 ± 0.001 µM

CCCn1c(=O)[nH]c2nc(-c3ccc(S(=O)(=O)N4CCCCC4)cc3)[nH]c2c1=O [Compound 8]
Ki [9]: 0.714 ± 0.122 µM | Selectivity Ratio Ki(Ax)/Ki(A2B) A2A/A2B [10]: 35 | Selectivity Ratio Ki(Ax)/Ki(A2B) A1/A2B [11]: 4 | Selectivity Ratio Ki(Ax)/Ki(A2B) A3/A2B [8]: 7 | Ki [13]: 0.0911 ± 0.025 µM

CCCn1c(=O)c2[nH]c(-c3ccc(OCC(=O)Nc4ccc(C#N)cc4)cc3)nc2n(CCC)c1=O [MRS-1754]
Ki [14]: 0.00197 ± 0.00031 µM

CCCn1c(=O)[nH]c2nc(-c3ccc(S(=O)(=O)N4CCN(c5ccc(Cl)cc5)CC4)cc3)[nH]c2c1=O [PSB-603, 8-(4-[4-(4-chlorophenyl)piperazine-1-sulfonyl]phenyl)-1-propyl-2,3,6,7-tetrahydro-1H-purine-2,6-dione]
% Inhibition of Radioligand Binding A2A [15, 18]: 7 ± 14% | Ki [15]: > 10 µM | % Inhibition of Radioligand Binding A1 [16, 18]: 10 ± 3% | Ki [16]: > 10 µM | % Inhibition of Radioligand Binding A3 [12]: 10 ± 15% | Ki [12]: > 10 µM | Selectivity Ratio Ki(Ax)/Ki(A2B) A2A/A2B [6]: >18,000 | Selectivity Ratio Ki(Ax)/Ki(A2B) A1/A2B [7]: >18,000 | Selectivity Ratio Ki(Ax)/Ki(A2B) A3/A2B [8]: >18,000

[^3H]8-(4-[4-(4-chlorophenyl)piperazine-1-sulfonyl]phenyl)-1-propyl-2,3,6,7-tetrahydro-1H-purine-2,6-dione [[^3H]PSB-603]
uptake in the bladder, appendix, and lung ([17]; mice): low to moderate | uptake in the liver ([17]; mice): high | uptake in the pituitary gland ([17]; mice): moderate | standardized uptake value (SUV) in brain ([17]; mouse brain, i.v., n = 3): 0.21 ± 0.07 and 0.2
